Compound: CC1(N2C(=O)c3cccc(N)c3C2=O)CCC(=O)NC1=O (stereo not shown) [Example 7, 3-(3-Aminophthalimido)-3-methyl-piperidine-2,6-dione]
- melting point: 268 to 269 °C

Reference: US7459466B2, “Substituted 2-(2,6-dioxopiperidin-3-yl)-phthalimides and -1-oxoisoindolines and method of reducing TNFα levels” (Celgene Corporation, priority 1997, dated 2008)
